Source: US6972294B1, “Compounds, their preparation and use” (Novo Nordisk, A/S, priority 1999, dated 2005)

CCOC(=O)C(Cc1ccc(OCC=C(c2ccccc2)c2ccncc2)cc1)OCC (stereo not shown) [Example 29, 2-Ethoxy-3-[4-(3-phenyl-3-pyridin-4-yl-allyloxy)-phenyl]-propionic acid ethyl ester]
melting point: 84 to 87 °C
